# Values joined by “and” are separate entries in the source; they are usually repeats but may differ in a detail not shown here. Equal entries are not always repeated.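 Values below derive from 48-hour exposures of cells grown in 96-well plates, with endpoints linearly interpolated between the two concentrations bracketing the appropriate inhibition level. GI50 marks 50% less growth. At the TGI there is no net growth.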 Where a SMILES comes first, the peptide text is derived from it. The star is where a group is joined. Cbz = O=C(OCc1ccccc1)*
# What was measured:
# Assay in all cases: NCI-60 cell line screen, 48 h
# [1] = system: RXF 393 renal
# [2] = system: SNB-19 CNS
# [3] = system: SF-539 CNS
# [4] = system: BT-549 breast
# [5] = system: T-47D breast
# [6] = system: CAKI-1 renal
# [7] = system: MCF7 breast
# [8] = system: HCT-15 colon
# [9] = system: NCI/ADR-RES ovarian
# [10] = system: PC-3 prostate
# [11] = system: HCC-2998 colon
# [12] = system: HL-60(TB) leukemia
SMILES,TGI [1] [µM],TGI [2],TGI [3] [µM],TGI [4] [µM],TGI [5],TGI [6] [µM],TGI [7] [µM],TGI [8] [µM],TGI [9],TGI [10],TGI [11] [µM],TGI [12] [µM],GI50 [2] [µM],GI50 [5] [µM],GI50 [9] [µM],GI50 [10] [µM],GI50 [11] [µM]
CC(=O)c1c(N=[N+]=[N-])c2cccc3c2n(c1=O)CCC3,45.4,> 100 µM,> 100,39.8,60.4 µM,57.8,62.5,47.4,38.2 µM,38.6 µM,32,,,,,,
CC1(C)O[C@H]2OC(CO)C(N=[N+]=[N-])[C@H]2O1 (stereo not given in full),,> 100 µM,> 100,,> 100 µM,> 100,> 100,> 100,> 100 µM,> 100 µM,> 100,> 100,,,,,
O=C(Cn1c2ccc(Br)cc2c2nc3ccccc3nc21)NNC(=S)NC1CCCCC1,23.4,33.8 µM,,42.8,45.8 µM,38.6,,25.4,34.5 µM,24 µM,34.6,,,,,,
O=C1/C(=C\c2cccc(Oc3ccccc3)c2)S(=O)(=O)C(c2ccccc2)N1c1cccc(Cl)c1 (stereo not given),> 100,> 100 µM,> 100,> 100,> 100 µM,> 100,> 100,> 100,> 100 µM,> 100 µM,> 100,,,,,,
COc1cc(Nc2nc3cc(C(F)(F)F)ccc3nc2C(=O)O)cc(OC)c1OC,70.2,> 100 µM,> 100,> 100,> 100 µM,99,> 100,> 100,> 100 µM,,> 100,> 100,,,,,
C(=Nc1ccc2c(c1)Cc1ccccc1-2)c1ccccn1,> 100,> 100 µM,,> 100,> 100 µM,> 100,,> 100,> 100 µM,> 100 µM,,,,,,,
N[C@H](Cc1ccc2oc3cc(=O)c4ccccc4c-3nc2c1)C(=O)O,> 100,> 100 µM,> 100,,> 100 µM,> 100,65,> 100,> 100 µM,,,> 100,,,,,
CC(=O)Nc1c(C(=N)C#N)ncn1CCO,> 100,> 100 µM,> 100,,> 100 µM,> 100,> 100,> 100,> 100 µM,> 100 µM,> 100,,,,,,
Cc1ccc2c(c1)CC1(Cc3cccc(C)c3C1=O)C2=O (stereo not given),> 100,,> 100,,> 10 µM,,> 10,> 100,> 100 µM,> 100 µM,> 100,> 100,,,,,
Cn1nnnc1SC(F)(F)c1nc2ccccc2o1,> 100,,> 100,> 100,> 100 µM,> 100,> 100,> 100,> 100 µM,> 100 µM,> 100,,,,,,
CN1CCCOC(c2ccc(Cl)cc2)O1 (stereo not given),> 100,> 100 µM,> 100,> 100,> 100 µM,> 100,> 100,> 100,> 100 µM,> 100 µM,> 100,,,,,,
CC(=O)O[C@]12CCCCCC1C1(O)C(O)CCCCC12 (stereo not given in full),> 100,> 100 µM,,,,,,> 100,,,,> 100,,,,,
COC(=O)[C@@H](NC(=O)N(Cc1ccccc1)C[C@H](CC(C)C)NC(=O)[C@@H](NC(=O)OC(C)(C)C)C(C)C)C(C)C,> 100,> 100 µM,> 100,> 100,> 100 µM,> 100,,> 100,> 100 µM,> 100 µM,> 100,> 100,,,,,
CCOC(=O)CCC(NC(=O)OCc1ccccc1)C(=O)NC(CCC(=O)OCC)C(=O)OCC (stereo not given) (Cbz-Glu(OEt)-Glu(OEt)-OEt; configuration not given here),> 100,> 100 µM,> 100,,> 100 µM,> 100,> 100,> 100,> 100 µM,> 100 µM,> 100,,,,,,
Cc1ccc(NC(=O)C(=O)C2C(=O)NC(=O)NC2=O)cc1C,> 100,> 100 µM,> 100,,,> 100,,> 100,,,> 100,> 100,,,,,
COc1cccc(-c2nc(-c3cnccn3)n(C/C=C/c3ccccc3)n2)c1,,> 10 µM,> 10,> 10,,,> 10,> 10,> 10 µM,> 10 µM,> 10,,,,,,
Cc1cc(C)nc(NC(P(=O)(O)O)P(=O)(O)O)n1,> 100,> 100 µM,> 100,> 100,,> 100,> 100,> 100,> 100 µM,> 100 µM,> 100,,,,,,
O=C(CBr)c1ccc2cc(Br)c3ccccc3c2c1,38.7,64.6 µM,41.7,34,,38,73.8,> 100,> 100 µM,53.1 µM,> 100,69.6,,,,,
CC(=O)c1ccc2c(c1)C(=O)c1sc(C(C)=O)cc1C2=O,4.7,1.66 µM and 2.61 µM,1.86,,3.01 µM and 4.31 µM,4.48,4.7,2.18,2.56 µM and 1.93 µM,7.12 µM and 11.3 µM,,50,1.34,1.73,0.326,2.55,1.71
C/C=C\C(CC(=O)NCC(=O)c1c[nH]c2ccccc12)CC(=O)OC (stereo not given),> 100,> 100 µM,,> 100,> 100 µM,> 100,> 100,> 100,> 100 µM,> 100 µM,> 100,,,,,,
O=C1CC(=O)NC(=NN2C(=O)/C(=C/c3ccc(Cl)c(Cl)c3)N=C2c2ccccc2)N1,92.6,,39.6,49.2,> 100 µM,> 100,49.8,> 100,54.2 µM,72.7 µM,39.6,,,,,,

# From PubChem BioAssay (NCI)
